Literature values, collected in US10905651B1, “Zeinmersome nanocarriers for drug delivery to the liver” (King Abdulaziz University, priority 2020, dated 2021).

Conditions: cited from earlier work

CCCc1nc(C(C)(C)O)c(C(=O)O)n1Cc1ccc(-c2ccccc2-c2nnn[nH]2)cc1 [olmesartan]
oral bioavailability of olmesartan (Kobayashi et al. 2000): 4.5% | volume of distribution (Vd) (following IV administration): 15 to 25 L
